Source: article PMC2929814 (Journal of medicinal chemistry, 2010)
Where two headings read alike, the source gives them in different places.

What was measured:
[1] = system: P. falciparum D6 (CQS) strain; assay: Activity against CQ-sensitive P. falciparum D6 in red cell culture; format: cell-based, Plasmodium falciparum
[2] = system: mouse spleen lymphocytes; assay: Cytotoxicity against mouse spleen lymphocytes; conditions: estimated ±50%
[3] = system: parasitemia; conditions: mouse model, oral dosing; cited from earlier work
[4] = system: P. falciparum D6 (CQS) strain; conditions: read-out: IC50 against the D6 strain; reported value; cited from earlier work

## CCN(CC)CCCC(C)Nc1ccnc2cc(Cl)ccc12 (stereo not shown) [CQ, chloroquine, reference compound]
[1]; Plasmodium falciparum, D6, read-out: IC50 D6 (CQS)
  IC50: 7 nM
[2]
  Cytotoxicity: 12 µM

## CN(CCCNc1ccnc2cc(Cl)ccc12)CCCN1c2ccccc2CCc2ccccc21 [Compound 1]
[3]
  parasitemia cleared to: < 1%
[2]
  Cytotoxicity: 0.7 µM

## Clc1ccc2c(NCCCNCCCCN(Cc3ccccc3)Cc3ccccc3)ccnc2c1 [Compound 5]
[2]
  Cytotoxicity: 1.3 µM

## Clc1ccc2c(NCCN(CCN(Cc3ccccc3)Cc3ccccc3)CCN(Cc3ccccc3)Cc3ccccc3)ccnc2c1 [Compound 7]
[2]
  Cytotoxicity: 6.2 µM

## O=C(CNCCNc1ccnc2cc(Cl)ccc12)N(c1ccccc1)c1ccccc1 [Compound 10]
[1]; cytotoxicity / IC50 D6
  therapeutic index (cytotoxicity/efficacy) for D6: 12,000
[2]
  Cytotoxicity: 62 µM

## Clc1ccc2c(N3CCN(CCN(Cc4ccccc4)Cc4ccccc4)CC3)ccnc2c1 [Compound 11]
[2]
  Cytotoxicity: 61 µM

## Clc1ccc2c(N3CCN(CCCN4CCN(c5ccnc6cc(Cl)ccc56)CC4)CC3)ccnc2c1 [piperaquine, 1,3-bis-[4-(7-chloroquinolyl-4)-piperazinyl-1]-propane]
[4]
  IC50: < 10 nM
